Assays:
[1] = target: Tyrosine-protein kinase Fyn (Homo sapiens, UniProt P06241); assay: biochemical; format: cell-based, Insect cells;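 also: enzymatic inhibition of Fyn kinase activity measured with Poly(Glu:Tyr) as the phosphorylation substrate; in other assays of this panel Not Active means under 50% inhibition at 10 µM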
[2] = DRUGMATRIX: GABAA, Chloride Channel, TBOB radioligand binding (ligand: [3H] TBOB); format: cell membranes, Rattus norvegicus, Wistar, Cerebral cortex, Membrane; settings: Not Active = under 50% inhibition at 10 µM
[3] = target: T1, Adenosine receptor A3 (Homo sapiens, UniProt P0DMS8); format: cell membranes, CHO-K1, Membrane; settings: for Ki: read-out: Ki;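 as to all read-outs here: radioligand binding assay with AB-MECA serving as the labeled ligand; in other assays of this panel Not Active means under 50% inhibition at 10 µM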
T1 sequence (P0DMS8 whole entry): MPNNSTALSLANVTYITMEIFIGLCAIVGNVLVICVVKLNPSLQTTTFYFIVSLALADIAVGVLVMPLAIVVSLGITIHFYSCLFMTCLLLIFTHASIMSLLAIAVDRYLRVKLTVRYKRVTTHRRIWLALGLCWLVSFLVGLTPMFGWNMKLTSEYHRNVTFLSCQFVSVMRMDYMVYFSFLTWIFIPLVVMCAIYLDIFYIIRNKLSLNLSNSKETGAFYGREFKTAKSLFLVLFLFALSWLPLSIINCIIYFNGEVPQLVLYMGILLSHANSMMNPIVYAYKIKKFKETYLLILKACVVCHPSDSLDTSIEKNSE

[4] = target: C-C chemokine receptor type 5 (Homo sapiens, UniProt P51681); format: cell membranes, Membrane; settings: hek293; also: in other assays of this panel Not Active means under 50% inhibition at 10 µM
Sequence of C-C chemokine receptor type 5 (P51681 whole entry): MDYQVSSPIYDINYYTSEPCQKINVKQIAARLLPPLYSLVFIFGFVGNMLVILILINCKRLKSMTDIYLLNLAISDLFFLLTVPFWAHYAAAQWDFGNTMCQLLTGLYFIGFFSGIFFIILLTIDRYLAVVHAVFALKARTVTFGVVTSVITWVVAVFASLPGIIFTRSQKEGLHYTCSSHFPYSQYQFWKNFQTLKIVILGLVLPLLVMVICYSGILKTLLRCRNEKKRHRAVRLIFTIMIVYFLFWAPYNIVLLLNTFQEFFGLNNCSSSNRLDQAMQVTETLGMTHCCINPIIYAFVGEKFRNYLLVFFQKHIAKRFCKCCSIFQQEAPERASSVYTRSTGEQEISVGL

[5] = target: T2, Cholecystokinin receptor type A (Homo sapiens, UniProt P32238); format: cell membranes, Membrane; settings: 1321-n1; also: in other assays of this panel Not Active means under 50% inhibition at 10 µM
T2 sequence (P32238 whole entry): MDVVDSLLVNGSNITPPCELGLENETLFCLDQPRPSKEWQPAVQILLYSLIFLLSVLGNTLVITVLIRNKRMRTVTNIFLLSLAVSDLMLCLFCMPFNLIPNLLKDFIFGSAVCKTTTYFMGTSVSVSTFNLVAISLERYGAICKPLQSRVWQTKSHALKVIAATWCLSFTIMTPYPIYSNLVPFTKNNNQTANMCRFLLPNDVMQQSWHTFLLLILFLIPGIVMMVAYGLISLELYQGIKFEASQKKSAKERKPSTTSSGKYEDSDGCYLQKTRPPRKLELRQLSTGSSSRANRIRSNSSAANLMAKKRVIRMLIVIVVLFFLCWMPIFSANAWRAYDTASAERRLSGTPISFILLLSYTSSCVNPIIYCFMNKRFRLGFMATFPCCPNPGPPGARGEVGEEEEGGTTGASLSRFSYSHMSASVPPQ

[6] = target: T3, Glucocorticoid receptor (Homo sapiens, UniProt P04150); settings: hela s3; also: in other assays of this panel Not Active means under 50% inhibition at 10 µM
T3 sequence (P04150 whole entry): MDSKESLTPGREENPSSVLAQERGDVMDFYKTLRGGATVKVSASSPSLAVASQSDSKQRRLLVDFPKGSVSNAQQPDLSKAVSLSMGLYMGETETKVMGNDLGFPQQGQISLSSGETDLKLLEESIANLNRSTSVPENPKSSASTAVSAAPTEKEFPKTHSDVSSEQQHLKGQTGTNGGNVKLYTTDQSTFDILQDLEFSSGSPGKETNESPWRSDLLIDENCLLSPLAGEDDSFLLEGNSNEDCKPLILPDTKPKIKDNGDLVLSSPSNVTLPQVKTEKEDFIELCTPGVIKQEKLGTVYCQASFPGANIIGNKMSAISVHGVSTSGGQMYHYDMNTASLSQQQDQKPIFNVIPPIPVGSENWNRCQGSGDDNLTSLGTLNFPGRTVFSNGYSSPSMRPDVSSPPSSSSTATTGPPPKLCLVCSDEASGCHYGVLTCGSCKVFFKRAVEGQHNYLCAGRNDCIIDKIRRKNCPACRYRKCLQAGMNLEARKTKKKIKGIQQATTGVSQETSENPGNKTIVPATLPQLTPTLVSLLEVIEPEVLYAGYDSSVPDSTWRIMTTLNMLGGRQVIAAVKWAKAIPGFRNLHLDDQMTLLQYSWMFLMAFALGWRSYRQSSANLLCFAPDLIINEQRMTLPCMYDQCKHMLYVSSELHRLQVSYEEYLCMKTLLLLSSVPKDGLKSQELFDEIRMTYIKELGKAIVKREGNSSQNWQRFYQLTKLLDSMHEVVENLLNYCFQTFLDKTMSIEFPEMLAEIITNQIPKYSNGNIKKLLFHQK

[7] = target: T4, Alpha-1B adrenergic receptor (Rattus norvegicus, UniProt P15823); assay: DRUGMATRIX: Alpha-1B adrenergic receptor radioligand binding (ligand: prazosin); format: cell membranes, Wistar, Liver, Membrane; settings: Not Active = under 50% inhibition at 10 µM
T4 sequence (P15823 whole entry): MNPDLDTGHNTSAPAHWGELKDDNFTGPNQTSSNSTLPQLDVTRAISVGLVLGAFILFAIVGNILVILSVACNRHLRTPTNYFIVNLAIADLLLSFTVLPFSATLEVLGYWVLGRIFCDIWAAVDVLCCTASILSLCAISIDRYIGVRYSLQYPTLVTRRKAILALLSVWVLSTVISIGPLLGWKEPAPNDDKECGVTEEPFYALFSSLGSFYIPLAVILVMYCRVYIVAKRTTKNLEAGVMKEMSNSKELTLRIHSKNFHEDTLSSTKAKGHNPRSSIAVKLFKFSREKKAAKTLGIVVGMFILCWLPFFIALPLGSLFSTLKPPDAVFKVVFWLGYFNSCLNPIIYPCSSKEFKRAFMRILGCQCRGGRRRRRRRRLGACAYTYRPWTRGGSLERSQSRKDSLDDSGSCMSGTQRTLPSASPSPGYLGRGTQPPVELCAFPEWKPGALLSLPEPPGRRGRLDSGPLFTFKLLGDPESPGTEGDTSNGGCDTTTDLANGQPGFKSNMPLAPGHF

Sequence of Tyrosine-protein kinase Fyn (P06241 whole entry): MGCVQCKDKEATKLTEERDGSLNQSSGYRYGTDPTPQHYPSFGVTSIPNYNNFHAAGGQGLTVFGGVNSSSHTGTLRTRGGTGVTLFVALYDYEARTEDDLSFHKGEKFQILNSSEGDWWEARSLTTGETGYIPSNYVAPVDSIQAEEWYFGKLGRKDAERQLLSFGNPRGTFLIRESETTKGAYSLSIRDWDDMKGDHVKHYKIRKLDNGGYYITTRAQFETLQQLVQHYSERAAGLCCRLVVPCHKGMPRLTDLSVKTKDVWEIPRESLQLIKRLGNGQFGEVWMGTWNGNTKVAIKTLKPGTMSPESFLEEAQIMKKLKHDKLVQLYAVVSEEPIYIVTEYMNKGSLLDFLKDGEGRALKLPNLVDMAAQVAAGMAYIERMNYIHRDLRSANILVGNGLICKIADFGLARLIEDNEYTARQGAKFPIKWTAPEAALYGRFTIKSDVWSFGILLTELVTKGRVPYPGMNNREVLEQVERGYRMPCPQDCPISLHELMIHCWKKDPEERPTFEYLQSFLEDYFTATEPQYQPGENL

Compound | IC50 ([1]; read-out: IC50) | IC50 [2] | Ki [2] | IC50 ([3]; read-out: IC50) | Ki [3] | IC50 [4] | IC50 [5] | IC50 [6] | IC50 [7] | IC50 ([1]; insect cells) | IC50 ([3]; cho-k1)
Cc1c(C)c2c(c(C)c1O)CCC(C)(CN1CCN(c3cc(N4CCCC4)nc(N4CCCC4)n3)CC1)O2 (stereo not drawn) | 1.65 µM | Not Active | Not Active | 10.8 µM | 6.08 µM | Not Active | Not Active | Not Active | Not Active | – | –
COc1ccc(CCN(C)CCCC(C#N)(c2ccc(OC)c(OC)c2)C(C)C)cc1OC (stereo not drawn) | – | Not Active | Not Active | – | – | Not Active | Not Active | – | – | Not Active | Not Active
CC(C)Cc1ccc([C@@H](C)C(=O)O)cc1 [(R)-IBUPROPHEN] | – | Not Active | Not Active | – | – | Not Active | Not Active | Not Active | Not Active | Not Active | Not Active
CN(C)CCOC(c1ccccc1)c1ccccc1 [DIPHENHYDRAMINE] | – | – | – | – | – | Not Active | Not Active | Not Active | – | Not Active | Not Active
Clc1ccc(COC(Cn2ccnc2)c2ccc(Cl)cc2Cl)cc1 (stereo not drawn) [ECONAZOLE] | 12.1 µM | – | – | – | – | Not Active | Not Active | Not Active | – | – | –
CCN(CC)CCOc1ccc(/C(=C(/Cl)c2ccccc2)c2ccccc2)cc1 [ENCLOMIPHENE] | 2.51 µM | – | – | – | – | Not Active | Not Active | Not Active | – | – | –
Fc1ccc(C(c2ccc(F)cc2)N2CCN(C/C=C/c3ccccc3)CC2)cc1 [FLUNARIZINE] | – | – | – | 5.2 µM | 2.94 µM | Not Active | Not Active | Not Active | – | Not Active | –
CNCCC(Oc1ccc(C(F)(F)F)cc1)c1ccccc1 (stereo not drawn) [FLUOXETINE] | – | – | – | – | – | Not Active | Not Active | Not Active | – | Not Active | Not Active
Cc1ccc(NC(=O)c2ccc(CN3CCN(C)CC3)cc2)cc1Nc1nccc(-c2cccnc2)n1 [IMATINIB] | – | – | – | – | – | Not Active | Not Active | Not Active | – | – | Not Active
CC(C)Oc1ccc2c(=O)c(-c3ccccc3)coc2c1 [IPRIFLAVONE] | – | Not Active | Not Active | – | – | Not Active | Not Active | Not Active | Not Active | Not Active | Not Active
CC(C)NCC(O)c1ccc(O)c(O)c1 (stereo not drawn) [ISOPROTERENOL] | – | Not Active | Not Active | – | – | Not Active | Not Active | Not Active | Not Active | Not Active | Not Active
CNC1(c2ccccc2Cl)CCCCC1=O (stereo not drawn) [KETAMINE] | – | Not Active | Not Active | – | – | Not Active | Not Active | Not Active | Not Active | Not Active | Not Active
N#Cc1ccc(C(c2ccc(C#N)cc2)n2cncn2)cc1 [LETROZOLE] | – | Not Active | Not Active | – | – | Not Active | Not Active | Not Active | Not Active | Not Active | Not Active
CCN1CCC[C@H]1CNC(=O)c1cc(S(N)(=O)=O)ccc1OC [LEVOSULPIRIDE] | – | Not Active | Not Active | – | – | Not Active | Not Active | Not Active | Not Active | Not Active | Not Active
CCN(CC)CC(=O)Nc1c(C)cccc1C [LIDOCAINE] | – | Not Active | Not Active | – | – | Not Active | Not Active | Not Active | Not Active | Not Active | Not Active
O=C1Nc2ccc(Cl)cc2C(c2ccccc2Cl)=NC1O (stereo not drawn) [LORAZEPAM] | – | Not Active | Not Active | – | – | Not Active | Not Active | Not Active | Not Active | Not Active | Not Active
CO[C@@H]1[C@@H](OC)[C@H](C)[C@@](O)(CC(=O)O)O[C@H]1[C@H](C)[C@H]1O[C@@]2(CC[C@@](C)([C@H]3CC[C@@](C)([C@@H]4O[C@@H]([C@H]5O[C@](C)(O)[C@H](C)C[C@@H]5C)C[C@@H]4O[C@@H]4C[C@H](OC)[C@@H](OC)[C@H](C)O4)O3)O2)C[C@H](O)[C@H]1C [MADURAMICIN ACID] | – | Not Active | Not Active | – | – | Not Active | Not Active | Not Active | – | Not Active | Not Active
C[C@H]1C[C@@H]2[C@H]([C@@H](O)C[C@@]3(C)[C@H]2CC[C@]3(O)C(=O)CO)[C@@]2(C)C=CC(=O)C=C12 [METHYLPREDNISOLONE] | – | Not Active | Not Active | – | – | Not Active | Not Active | – | Not Active | Not Active | Not Active
Cc1cccc(C)c1OCC(C)N (stereo not drawn) [MEXILETINE] | – | Not Active | Not Active | – | – | Not Active | Not Active | – | Not Active | Not Active | Not Active
CC[C@@H](C(=O)[C@@H](C)[C@@H](O)[C@H](C)[C@@H]1O[C@@H]([C@@H](CC)C(=O)O)CC[C@@H]1C)[C@H]1O[C@]2(C=C[C@@H](O)[C@]3(CC[C@@](C)([C@H]4CC[C@](O)(CC)[C@H](C)O4)O3)O2)[C@H](C)C[C@@H]1C [SALINOMYCIN] | – | Not Active | Not Active | – | – | Not Active | Not Active | – | Not Active | Not Active | Not Active
O=C(Oc1ccccc1C(=O)O)c1ccccc1O [SALSALATE] | – | Not Active | Not Active | – | – | Not Active | Not Active | – | Not Active | Not Active | Not Active
CN[C@H]1CC[C@@H](c2ccc(Cl)c(Cl)c2)c2ccccc21 [SERTRALINE] | – | – | – | – | – | Not Active | Not Active | Not Active | – | Not Active | Not Active
O.O.O.O.O.O.[Cl-].[Cl-].[Sr+2] [STRONTIUM CHLORIDE HEXAHYDRATE] | – | Not Active | Not Active | – | – | Not Active | Not Active | – | Not Active | Not Active | Not Active
Cn1c(=O)c2nc[nH]c2n(C)c1=O.O [THEOPHYLLINE] | – | Not Active | Not Active | – | – | Not Active | Not Active | – | Not Active | Not Active | Not Active
Clc1ccccc1CN1CCc2sccc2C1 [TICLOPIDINE] | – | Not Active | Not Active | – | – | Not Active | Not Active | – | Not Active | Not Active | Not Active
